Test results reported in patent US9884063B2, “Amido-substituted azole compounds” (Bayer Pharma Aktiengesellschaft, priority 2014, dated 2018).

Biological target: T1, TNKS1 (Homo sapiens, UniProt O95271)
T1 sequence (O95271 1-1327): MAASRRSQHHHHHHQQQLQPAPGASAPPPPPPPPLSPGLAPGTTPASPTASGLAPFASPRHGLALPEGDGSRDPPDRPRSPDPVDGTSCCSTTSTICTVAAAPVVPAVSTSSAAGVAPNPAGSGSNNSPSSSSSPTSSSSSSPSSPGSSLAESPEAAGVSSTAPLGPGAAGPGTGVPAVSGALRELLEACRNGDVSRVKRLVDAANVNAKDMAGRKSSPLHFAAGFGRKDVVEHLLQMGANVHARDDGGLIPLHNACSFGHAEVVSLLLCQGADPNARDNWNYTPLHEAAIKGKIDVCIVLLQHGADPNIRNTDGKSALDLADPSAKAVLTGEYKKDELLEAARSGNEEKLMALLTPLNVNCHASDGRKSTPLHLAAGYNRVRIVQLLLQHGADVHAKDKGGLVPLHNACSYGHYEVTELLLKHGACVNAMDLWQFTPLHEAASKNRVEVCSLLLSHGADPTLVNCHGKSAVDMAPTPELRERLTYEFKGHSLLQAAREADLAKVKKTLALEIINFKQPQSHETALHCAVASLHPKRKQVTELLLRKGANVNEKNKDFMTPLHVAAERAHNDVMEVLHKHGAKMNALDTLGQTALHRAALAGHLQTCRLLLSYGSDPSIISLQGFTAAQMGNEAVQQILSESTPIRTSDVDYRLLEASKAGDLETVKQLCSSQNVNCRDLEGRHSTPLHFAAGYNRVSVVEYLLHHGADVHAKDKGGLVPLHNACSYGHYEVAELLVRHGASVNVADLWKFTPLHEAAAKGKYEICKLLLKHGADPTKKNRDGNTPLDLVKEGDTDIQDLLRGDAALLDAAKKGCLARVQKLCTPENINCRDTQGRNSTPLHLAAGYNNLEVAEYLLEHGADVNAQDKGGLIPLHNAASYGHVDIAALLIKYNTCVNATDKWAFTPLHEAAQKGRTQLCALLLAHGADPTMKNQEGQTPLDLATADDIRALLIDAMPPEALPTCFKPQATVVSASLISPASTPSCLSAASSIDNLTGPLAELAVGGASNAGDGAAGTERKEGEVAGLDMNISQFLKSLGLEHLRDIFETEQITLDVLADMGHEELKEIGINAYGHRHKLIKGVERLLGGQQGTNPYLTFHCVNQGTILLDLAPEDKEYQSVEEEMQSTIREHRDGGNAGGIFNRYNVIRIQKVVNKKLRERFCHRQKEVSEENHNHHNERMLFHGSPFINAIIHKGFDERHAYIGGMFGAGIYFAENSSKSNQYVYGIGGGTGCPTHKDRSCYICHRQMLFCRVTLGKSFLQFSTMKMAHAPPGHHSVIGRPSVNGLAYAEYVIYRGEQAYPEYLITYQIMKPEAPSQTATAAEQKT
Assay: TNKS1 Assay 1 (TNKS1 Histone Ribosylation Assay Kit, biotin-labeled NAD+)
Assay type: biochemical
Conditions: chemiluminescent readout, 384 well, Table 1
Description: The potency of the compounds according to the invention was assessed by applying an in vitro inhibition assay. The TNKS1 catalyzed NAD^+-dependent ribosylation of a suitable protein substrate was detected using a commercially available biotin/streptavidin binding based assay format [TNKS1 Histone Ribosylation Assay Kit (Biotin-labeled NAD+), Catalog #80579; BPS Bioscience, San Diego, USA]. Here, the incorporation of a biotin-labeled NAD+ during the TNKS1 catalyzed ribosylation reaction was detected with a streptavidin-HRP coupled chemi-luminescent readout. The intensity of the readout signal is proportional to the incorporated NAD^+. Inhibition of TNKS1 leads to a decreased incorporation of NAD^+ and consequently to a lower readout signal intensity. The concentration of a test compound which inhibits the enzyme activity by 50% (corresponds to half of the normed readout signal intensity) is reported as IC50.
The assay was conducted in a 384 well MTP format according to the manufacturer's protocol [bpsbioscience.com/poly-adp-ribose-polymerase/assay-kit/tnks1-histone-ribosylation-assay-kit-biotin-labeled-nad-80579 referencing: Brown, J. A., Marala, R. B. J. Pharmacol. Toxicol. Methods 2002 47:137-41] and using a BMG Pherastar MTP reader [BMG-Labtech, Offenburg, Germany].

IC50: > 100 µM
Structure (SMILES): CNC(=O)c1[nH]cnc1C(=O)Nc1ccc(NC(=O)c2cc(Cl)sc2Cl)cc1 [Example 213, N^4-(4-{[(2,5-dichloro-3-thienyl)carbonyl]amino}phenyl)-N^5-methyl-1H-imidazole-4,5-dicarboxamide]
